Results on one substance are retold here after patent US20050079604A1, “Method for improving functionality of tissue constructs” (priority 2001, published 2005).

Experiment [1] deals with smooth muscle cells present in reconstructed human vascular media. As to the kind of experiment: Immunolabeled differentiation markers of smooth muscle cells in RHVM. The class given is cell-based. To be noted: FIG. 10. The protocol: (§1) Reconstructed human vascular media (RHVM) were prepared for the control tissue construct (not aligned) as described in Example I. The RHVM used for this example were treated as follow: RHVM cultured in medium described above represent the control condition (non-treated RHVM) and RHVM supplemented with cell proliferation inhibitors, heparin or olomoucine (treated RHVM).

For experiment [2], the system named is reconstructed human vascular media (RHVM). As to the kind of experiment: Contraction of RHVM rings in response to cumulative doses of histamine (myograph, isometric tension). It is filed as cell-based. To be noted: 21 days of maturation, FIG. 9. The protocol: as §1
To assess the contractile function of RHVM which were treated or not (control condition), RHVM rings of 5-7 mm in length were removed from the tubular support used for culture after 21 days of maturation. Rings were mounted in a myograph and challenged in the presence of cumulative doses of histamine, a vasoactive agent. Isometric tension generated by RHVM contraction was directly recorded via a force transducer (Kilster-Morse, DSG BE4).

Turning to heparin, the “expression of differentiation markers in cells cultured with the inhibitor vs without” value in experiment [1] is listed as “increased”. Further, the “contraction of RHVM cultured with the cell proliferation inhibitor vs control RHVM” value in experiment [2] (higher doses of histamine, 10^−5 and 10^−4 M) was “significantly greater contraction”. Also, the “contraction of RHVM cultured with the cell proliferation inhibitor vs non-treated RHVM” value in experiment [2] (low dose of histamine (10^−6 M)) was “no significant difference of contraction”.
